Test results reported in ChEMBL document CHEMBL6182861, “Structural modification of heptamethine indocyanine dyes with improved aqueous solubility and stability for photothermal therapy” (Eur J Med Chem, 2025).
Activity calls are given as the source filed them. No cut-off for these calls is given here.

Legend:
4T1 [1] = assay: Photothermal cytotoxicity against mouse 4T1 cells up to 25 uM preincubated for 4 hrs followed by exposure to laser irradiation of 808 nm for 2 mins and subsequent incubation for 20 hrs by MTT assay; type: functional, cell-based
[2] = Toxicity in female BALB/c mouse bearing mouse 4T1 cells assessed as damage in kidney at 1.8 mg/kg, iv pretreated for 4 hrs followed by exposure to laser irradiation of 808 nm for 5 mins on every 2 days treated for 15 days by H and E staining based analysis; type: organism-based; conditions: in vivo, 360 h, time 15 day
[3] = Drug accumulation in tumor of female BALB/c mouse bearing mouse 4T1 cells at 1.8 mg/kg, iv measured up to 12 hrs by fluorescence imaging analysis; type: ADME, organism-based, Neoplasm; conditions: in vivo
HepG2 [4] = assay: Photothermal cytotoxicity against human HepG2 cells up to 25 uM preincubated for 4 hrs followed by exposure to laser irradiation of 808 nm for 2 mins and subsequent incubation for 20 hrs by MTT assay; type: functional, cell-based; conditions: time 1442.0 min
[5] = Toxicity in ICR mouse bearing mouse H22 cells assessed as damage in spleen at 1.8 mg/kg, iv pretreated for 4 hrs followed by exposure to laser irradiation of 808 nm for 5 mins on every 2 days treated for 15 days by H and E staining based analysis; type: organism-based; conditions: in vivo, 360 h, time 15 day
[6] = Toxicity in ICR mouse bearing mouse H22 cells assessed as damage in liver at 1.8 mg/kg, iv pretreated for 4 hrs followed by exposure to laser irradiation of 808 nm for 5 mins on every 2 days treated for 15 days by H and E staining based analysis; type: organism-based; conditions: in vivo, 360 h, time 15 day
4T1 [7] = assay: Antitumor activity against mouse 4T1 cells implanted in female BALB/c mouse assessed as decrease in tumor volume at 1.8 mg/kg, iv treated for 4 hrs on every 2 days treated for 15 days; type: functional, organism-based; conditions: time 15.0 day
[8] = Toxicity in female BALB/c mouse bearing mouse 4T1 cells assessed as damage in spleen at 1.8 mg/kg, iv pretreated for 4 hrs followed by exposure to laser irradiation of 808 nm for 5 mins on every 2 days treated for 15 days by H and E staining based analysis; type: organism-based; conditions: in vivo, 360 h, time 15 day
[9] = Toxicity in female BALB/c mouse bearing mouse 4T1 cells assessed as damage in heart at 1.8 mg/kg, iv pretreated for 4 hrs followed by exposure to laser irradiation of 808 nm for 5 mins on every 2 days treated for 15 days by H and E staining based analysis; type: organism-based; conditions: in vivo, 360 h, time 15 day
[10] = Biodistribution in liver of female BALB/c mouse bearing mouse 4T1 cells at 1.8 mg/kg, iv measured up to 12 hrs by fluorescence imaging analysis; type: ADME, organism-based; conditions: in vivo
[11] = Toxicity in ICR mouse bearing mouse H22 cells assessed as damage in lung at 1.8 mg/kg, iv pretreated for 4 hrs followed by exposure to laser irradiation of 808 nm for 5 mins on every 2 days treated for 15 days by H and E staining based analysis; type: organism-based; conditions: in vivo, 360 h, time 15 day
4T1 [12] = assay: Antitumor activity against mouse 4T1 cells implanted in female BALB/c mouse assessed as cellular damage at 1.8 mg/kg, iv pretreated for 4 hrs followed by exposure to laser irradiation of 808 nm for 5 mins on every 2 days treated for 15 days by H and E staining based analysis; type: functional, organism-based; conditions: time 15.0 day
[13] = Toxicity in female BALB/c mouse bearing mouse 4T1 cells assessed as damage in liver at 1.8 mg/kg, iv pretreated for 4 hrs followed by exposure to laser irradiation of 808 nm for 5 mins on every 2 days treated for 15 days by H and E staining based analysis; type: organism-based; conditions: in vivo, 360 h, time 15 day
[14] = Drug accumulation in tumor of female BALB/c mouse bearing mouse 4T1 cells assessed as increase in fluorescence intensity at 1.8 mg/kg, iv measured after 4 hrs by fluorescence imaging analysis; type: ADME, organism-based, Neoplasm; conditions: in vivo
4T1 [15] = assay: Antitumor activity against mouse 4T1 cells implanted in female BALB/c mouse assessed as tumor growth inhibition at 2.5 mg/kg, iv pretreated for 4 hrs followed by exposure to laser irradiation of 808 nm for 5 mins on every 2 days treated for 15 days; type: functional, organism-based; conditions: time 15.0 day
4T1 [16] = assay: Antitumor activity against mouse 4T1 cells implanted in female BALB/c mouse assessed as nuclei rupture at 2.5 mg/kg, iv pretreated for 4 hrs followed by exposure to laser irradiation of 808 nm for 5 mins on every 2 days treated for 15 days by H and E staining based analysis; type: functional, organism-based; conditions: time 15.0 day
[17] = Toxicity in female BALB/c mouse bearing mouse 4T1 cells assessed as damage in kidney at 2.5 mg/kg, iv pretreated for 4 hrs followed by exposure to laser irradiation of 808 nm for 5 mins on every 2 days treated for 15 days by H and E staining based analysis; type: organism-based; conditions: in vivo, 360 h, time 15 day
4T1 [18] = assay: Antitumor activity against mouse 4T1 cells implanted in female BALB/c mouse assessed as decrease in tumor volume at 2.5 mg/kg, iv treated for 4 hrs on every 2 days treated for 15 days; type: functional, organism-based; conditions: time 15.0 day
[19] = Toxicity in ICR mouse bearing mouse H22 cells assessed as damage in liver at 2.5 mg/kg, iv pretreated for 4 hrs followed by exposure to laser irradiation of 808 nm for 5 mins on every 2 days treated for 15 days by H and E staining based analysis; type: organism-based; conditions: in vivo, 360 h, time 15 day
H22 = assay: Antitumor activity against mouse H22 cells implanted in female ICR mouse assessed as tumor growth inhibition at 2.5 mg/kg, iv pretreated for 4 hrs followed by exposure to laser irradiation of 808 nm for 5 mins on every 2 days treated for 15 days; type: functional, organism-based; conditions: time 15.0 day
[20] = Toxicity in ICR mouse bearing mouse H22 cells assessed as damage in heart at 2.5 mg/kg, iv pretreated for 4 hrs followed by exposure to laser irradiation of 808 nm for 5 mins on every 2 days treated for 15 days by H and E staining based analysis; type: organism-based; conditions: in vivo, 360 h, time 15 day
Mitochondrial membrane = assay: Inhibition of mitochondrial membrane potential in human HepG2 cells assessed as green fluorescence at 3.12 uM preincubated for 4 hrs followed by exposure to laser irradiation of 808 nm for 2 mins and subsequent incubation for 20 hrs by JC-1 dye based analysis; type: cell membranes; conditions: time 1442.0 min
HepG2 [21] = assay: Cytotoxicity against human HepG2 cells assessed as cell viability under dark condition up to 25 uM incubated for 24 hrs by MTT assay relative to control; type: functional
[22] = Drug accumulation in tumor of female BALB/c mouse bearing mouse 4T1 cells assessed as increase in fluorescence intensity at 2.5 mg/kg, iv measured after 4 hrs by fluorescence imaging analysis; type: ADME, organism-based, Neoplasm; conditions: in vivo
[23] = Toxicity in female BALB/c mouse bearing mouse 4T1 cells assessed as damage in heart at 2.5 mg/kg, iv pretreated for 4 hrs followed by exposure to laser irradiation of 808 nm for 5 mins on every 2 days treated for 15 days by H and E staining based analysis; type: organism-based; conditions: in vivo, 360 h, time 15 day
4T1 [24] = assay: Antitumor activity against mouse 4T1 cells implanted in female BALB/c mouse assessed as decrease in tumor size at 2.5 mg/kg, iv pretreated for 4 hrs followed by exposure to laser irradiation of 808 nm for 5 mins on every 2 days treated for 15 days; type: functional, organism-based; conditions: time 15.0 day
4T1 [25] = assay: Antitumor activity against mouse 4T1 cells implanted in female BALB/c mouse assessed as cellular damage at 2.5 mg/kg, iv treated on every 2 days treated for 15 days by H and E staining based analysis; type: functional, organism-based; conditions: time 15.0 day
[26] = Toxicity in ICR mouse bearing mouse H22 cells assessed as damage in lung at 2.5 mg/kg, iv pretreated for 4 hrs followed by exposure to laser irradiation of 808 nm for 5 mins on every 2 days treated for 15 days by H and E staining based analysis; type: organism-based; conditions: in vivo, 360 h, time 15 day

## COC(=O)C(=C\C=C\C1=[N+](C)c2ccccc2C1(C)C)/C=C/C=C1/N(C)c2ccccc2C1(C)C.[I-]
4T1 [1]
  Activity: Not active; Limited Photo-Thermal Toxicity Was Observed
[2]
  Activity: Non-toxic
[3]
  Drug uptake: Active
HepG2 [4]
  Activity: Not active; Limited Photo-Thermal Toxicity Was Observed
[5]
  Activity: Non-toxic
[6]
  Activity: Non-toxic
4T1 [7]
  Activity: inactive
[8]
  Activity: Non-toxic
[9]
  Activity: Non-toxic
[10]
  Drug uptake: Active
[11]
  Activity: Non-toxic
4T1 [12]
  Activity: Not active; Minor Cell Damage Was Observed
[13]
  Activity: Non-toxic
[14]
  Drug uptake: Active

## COCCOCCOCCN1/C(=C/C=C/C(=C/C=C/C2=[N+](CCOCCOCCOC)c3ccccc3C2(C)C)C(=O)OC)C(C)(C)c2ccccc21.[I-]
4T1 [15]
  inhibition: Active
4T1 [16]
  Activity: Active
[17]
  Activity: Non-toxic
4T1 [18]
  Activity: inactive
[19]
  Activity: Non-toxic
H22
  inhibition: Active
[20]
  Activity: Non-toxic
Mitochondrial membrane
  inhibition: Active
HepG2 [21]
  Activity: 55%
[22]
  Drug uptake: Active
[23]
  Activity: Non-toxic
4T1 [24]
  Activity: Active
4T1 [25]
  Activity: Not active; Minor Cell Damage Was Observed
[26]
  Activity: Non-toxic
